# Reference: patent US20150105252A1, “SUBSTITUTED PYRAZOLES AS HERBICIDES” (E I DU PONT DE NEMOURS AND COMPANY, priority 2013, published 2015)
# Assays:
# crabgrass, large [1] = assay: Test A preemergence; format: in vivo, Digitaria sanguinalis; settings: preemergence; for Crabgrass, Large plant response rating (0 to 100 scale): 125 g ai/ha, visual injury approx. 10 days after treatment; for Crabgrass, Large plant response rating: 500 g ai/ha, visual injury after approx. 10 days, 0 to 100 scale (0 no effect, 100 complete control)
# In short: (§1)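 Injury readout: eye-scored versus untreated controls, 0 to 100. Exposure period: ~10 days, greenhouse. Application: soil-directed spray over sown seed (pre) or spray on seedlings 2–10 cm tall with one or two leaves (post), compound carried in non-phytotoxic solvent including surfactant.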
# morningglory = assay: Test A preemergence; format: in vivo, Ipomoea spp.; settings: preemergence; for Morningglory plant response rating (0 to 100 scale): 125 g ai/ha, visual injury approx. 10 days after treatment; for Morningglory plant response rating: 500 g ai/ha, visual injury after approx. 10 days, 0 to 100 scale (0 no effect, 100 complete control)
# In short: as §1
# velvetleaf = assay: Test A preemergence; format: in vivo, Abutilon theophrasti; settings: preemergence; for Velvetleaf plant response rating (0 to 100 scale): 125 g ai/ha, visual injury approx. 10 days after treatment; for Velvetleaf plant response rating: 500 g ai/ha, visual injury after approx. 10 days, 0 to 100 scale (0 no effect, 100 complete control)
# In short: as §1
# corn [2] = assay: Test A preemergence; format: in vivo, Zea mays; settings: preemergence; for Corn plant response rating (0 to 100 scale): 125 g ai/ha, visual injury approx. 10 days after treatment; for Corn plant response rating: 500 g ai/ha, visual injury after approx. 10 days, 0 to 100 scale (0 no effect, 100 complete control)
# In short: as §1
# barnyardgrass [3] = assay: Test A postemergence; format: in vivo, Echinochloa crus-galli
# In short: as §1
# foxtail, giant = assay: Test A postemergence; format: in vivo, Setaria faberii
# In short: as §1
# rice = assay: Test B flood; format: in vivo, Oryza sativa; settings: 250 g ai/ha, visual rating on 0 to 100 scale (0 no effect, 100 complete control), 13 to 15 days
# In short: (§2)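 Paddy-water application: seedlings at 2-leaf stage, flood depth 3 cm maintained for the test duration. Evaluation after 13–15 days in the greenhouse by eye relative to controls; 0–100 scale.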
# barnyardgrass [4] = assay: Test B flood; format: in vivo, Echinochloa crus-galli; settings: 250 g ai/ha, visual rating on 0 to 100 scale (0 no effect, 100 complete control), 13 to 15 days
# In short: as §2
# corn [5] = assay: Test C preemergence; format: in vivo, Zea mays; settings: preemergence; for Plant response rating, Corn: 125 g ai/ha, scale 0 to 100, 0 = no effect, 100 = complete control
# In short: (§3)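 Greenhouse pot test: preemergence application onto freshly seeded loam/sand mix, postemergence application onto seedlings (1–4 leaves, 2–18 cm) in peat-vermiculite substrate. Responses scored visually 13 to 15 days later relative to controls, where 0 means no effect and 100 means complete control; a dash indicates no result.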
# oilseed rape [6] = assay: Test C preemergence; format: in vivo, Brassica napus; settings: preemergence; for Plant response rating, Oilseed Rape: 125 g ai/ha, scale 0 to 100, 0 = no effect, 100 = complete control
# In short: as §3
# galium = assay: Test C postemergence; format: in vivo, Galium aparine; settings: for Plant response rating (scale of 0 to 100 where 0 is no effect and 100 is complete control), Galium: Postemergence, 31 g ai/ha, visually evaluated after 13 to 15 days; for Galium plant response rating / Plant response rating, Galium: postemergence; for Galium plant response rating: 62 g ai/ha, scale 0 to 100
# In short: as §3
# crabgrass, large [7] = assay: Test C postemergence; format: in vivo, Digitaria sanguinalis; settings: for Plant response rating (scale of 0 to 100 where 0 is no effect and 100 is complete control), Crabgrass, Large: Postemergence, 31 g ai/ha, visually evaluated after 13 to 15 days; for Crabgrass, Large plant response rating / Plant response rating, Crabgrass, Large: postemergence; for Crabgrass, Large plant response rating: 62 g ai/ha, scale 0 to 100
# In short: as §3
# oilseed rape [8] = assay: Test C postemergence; format: in vivo, Brassica napus; settings: postemergence; for Oilseed Rape plant response rating: 62 g ai/ha, scale 0 to 100
# In short: as §3
# kochia = assay: Test C postemergence; format: in vivo, Kochia scoparia; settings: for Plant response rating (scale of 0 to 100 where 0 is no effect and 100 is complete control), Kochia: Postemergence, 31 g ai/ha, visually evaluated after 13 to 15 days; for Kochia plant response rating / Plant response rating, Kochia: postemergence; for Kochia plant response rating: 62 g ai/ha, scale 0 to 100
# In short: as §3
# [9] = Postemergence, 500 g ai/ha, 0 to 100 scale (0 no effect, 100 complete control)
# [10] = postemergence, 125 g ai/ha, about 10 days, visual rating on 0 to 100 scale (0 no effect, 100 complete control)
# [11] = 31 g ai/ha, visual rating, scale 0 to 100 (0 no effect, 100 complete control), 13 to 15 days
# [12] = 62 g ai/ha, scale 0 to 100 (0 no effect, 100 complete control), 13 to 15 days
# [13] = 250 g ai/ha, scale 0 to 100, 0 is no effect, 100 is complete control
# [14] = 250 g ai/ha, scale 0 to 100 (0 no effect, 100 complete control)
# [15] = 125 g ai/ha, scale 0 to 100, 0 no effect, 100 complete control
# [16] = Postemergence, 125 g ai/ha, 0 to 100 scale, 0 no effect, 100 complete control
SMILES,"Crabgrass, Large plant response rating (0 to 100 scale) (crabgrass, large [1])","Crabgrass, Large plant response rating (crabgrass, large [1])",Morningglory plant response rating (0 to 100 scale) (morningglory),Velvetleaf plant response rating (0 to 100 scale) (velvetleaf),Corn plant response rating (0 to 100 scale) (corn [2]),Corn plant response rating (corn [2]),Barnyardgrass plant response rating (barnyardgrass [3]; [9]),"Foxtail, Giant plant response rating (foxtail, giant; [9])","Plant response rating, Rice (rice)","Plant response rating, Barnyardgrass (barnyardgrass [4])",Corn plant response rating (corn [5]; [11]),Corn plant response rating (corn [5]; [12]),"Plant response rating, Corn (corn [5]; 13 to 15 days)",Corn plant response rating (corn [5]; [13]),Oilseed Rape plant response rating (oilseed rape [6]; [11]),Oilseed Rape plant response rating (oilseed rape [6]; [12]),"Plant response rating, Oilseed Rape (oilseed rape [6]; 13 to 15 days)",Oilseed Rape plant response rating (oilseed rape [6]; [13]),"Plant response rating (scale of 0 to 100 where 0 is no effect and 100 is complete control), Galium (galium)",Galium plant response rating (galium),also measured
CCCNC(=O)c1cc(OCC)n(Cc2ccnc(C(F)(F)F)c2)n1 [Compound 187],100,100,100,100,40,90,90,90,45,55,20,85,95,98,50,90,95,100,60,80,"Morningglory plant response rating (morningglory): 100; Velvetleaf plant response rating (velvetleaf): 100; Barnyardgrass plant response rating (barnyardgrass [3]; [10]): 90; Foxtail, Giant plant response rating (foxtail, giant; [10]): 90; Plant response rating, Galium (galium; [14]): 90; Plant response rating, Galium (galium; [15]): 85; Plant response rating (scale of 0 to 100 where 0 is no effect and 100 is complete control), Crabgrass, Large (crabgrass, large [7]): 10; Crabgrass, Large plant response rating (crabgrass, large [7]): 20; Plant response rating, Crabgrass, Large (crabgrass, large [7]; [14]): 95; Plant response rating, Crabgrass, Large (crabgrass, large [7]; [15]): 60; Oilseed Rape plant response rating (oilseed rape [8]): 50; Plant response rating, Oilseed Rape (oilseed rape [8]; [14]): 80; Plant response rating, Oilseed Rape (oilseed rape [8]; [15]): 75; Plant response rating (scale of 0 to 100 where 0 is no effect and 100 is complete control), Kochia (kochia): 85; Kochia plant response rating (kochia): 90; Plant response rating, Kochia (kochia; [14]): 90; Plant response rating, Kochia (kochia; [15]): 90"
CCCc1cc(C(=O)NC(C)C)nn1Cc1cc(C(F)(F)F)nn1C [Compound 201],100,100,100,100,10,90,100,100,45,70,40,60,70,95,100,100,100,95,60,80,"Morningglory plant response rating (morningglory): 100; Velvetleaf plant response rating (velvetleaf): 100; Barnyardgrass plant response rating (barnyardgrass [3]; [10]): 80; Foxtail, Giant plant response rating (foxtail, giant; [10]): 90; Plant response rating, Galium (galium; [14]): 95; Plant response rating, Galium (galium; [15]): 60; Plant response rating (scale of 0 to 100 where 0 is no effect and 100 is complete control), Crabgrass, Large (crabgrass, large [7]): 15; Crabgrass, Large plant response rating (crabgrass, large [7]): 10; Plant response rating, Crabgrass, Large (crabgrass, large [7]; [14]): 50; Plant response rating, Crabgrass, Large (crabgrass, large [7]; [15]): 15; Oilseed Rape plant response rating (oilseed rape [8]): 60; Plant response rating, Oilseed Rape (oilseed rape [8]; [14]): 80; Plant response rating, Oilseed Rape (oilseed rape [8]; [15]): 50; Plant response rating (scale of 0 to 100 where 0 is no effect and 100 is complete control), Kochia (kochia): 85; Kochia plant response rating (kochia): 85; Plant response rating, Kochia (kochia; [14]): 90; Plant response rating, Kochia (kochia; [15]): 90"
CCCc1cc(C(=O)NC2CC2)nn1Cc1cc(C(F)(F)F)nn1C [Compound 202],100,100,100,30,10,40,100,90,30,30,5,35,60,95,100,100,100,100,65,85,"Morningglory plant response rating (morningglory): 100; Velvetleaf plant response rating (velvetleaf): 100; Barnyardgrass plant response rating (barnyardgrass [3]; [10]): 90; Foxtail, Giant plant response rating (foxtail, giant; [10]): 90; Plant response rating, Galium (galium; [14]): 95; Plant response rating, Galium (galium; [15]): 90; Plant response rating (scale of 0 to 100 where 0 is no effect and 100 is complete control), Crabgrass, Large (crabgrass, large [7]): 5; Crabgrass, Large plant response rating (crabgrass, large [7]): 10; Plant response rating, Crabgrass, Large (crabgrass, large [7]; [14]): 70; Plant response rating, Crabgrass, Large (crabgrass, large [7]; [15]): 25; Oilseed Rape plant response rating (oilseed rape [8]): 30; Plant response rating, Oilseed Rape (oilseed rape [8]; [14]): 80; Plant response rating, Oilseed Rape (oilseed rape [8]; [15]): 65; Plant response rating (scale of 0 to 100 where 0 is no effect and 100 is complete control), Kochia (kochia): 85; Kochia plant response rating (kochia): 90; Plant response rating, Kochia (kochia; [14]): 90; Plant response rating, Kochia (kochia; [15]): 90"
CCc1cc(C(=O)NCC(F)(F)F)nn1Cc1ccnc(SC(F)(F)F)c1 [Compound 214],100,100,80,100,10,90,100,100,60,50,0,0,35,40,80,95,95,95,75,70,"Barnyardgrass plant response rating (barnyardgrass [3]; [16]): 100; Foxtail, Giant plant response rating (foxtail, giant; [16]): 100; Plant response rating, Galium (galium; [14]): 90; Plant response rating, Galium (galium; [15]): 60; Plant response rating (scale of 0 to 100 where 0 is no effect and 100 is complete control), Crabgrass, Large (crabgrass, large [7]): 5; Crabgrass, Large plant response rating (crabgrass, large [7]): 5; Plant response rating, Crabgrass, Large (crabgrass, large [7]; [14]): 55; Plant response rating, Crabgrass, Large (crabgrass, large [7]; [15]): 20; Oilseed Rape plant response rating (oilseed rape [8]): 60; Plant response rating, Oilseed Rape (oilseed rape [8]; [14]): 70; Plant response rating, Oilseed Rape (oilseed rape [8]; [15]): 60; Plant response rating (scale of 0 to 100 where 0 is no effect and 100 is complete control), Kochia (kochia): 85; Kochia plant response rating (kochia): 90; Plant response rating, Kochia (kochia; [14]): 90; Plant response rating, Kochia (kochia; [15]): 90"
